Data on eleven compounds can be found in paper PMC9963887, “Towards Radiolabeled EGFR-Specific Peptides: Alternatives to GE11” (Pharmaceuticals, 2023).

Where two headings read alike, the source gives them in different places. Where a SMILES comes first, the peptide text is derived from it. Bridges are numbered along the chain shown (N, C = ends). [ ]: non-standard residue; d: D form. The star is where a group is joined. X1 = O=C(O)CN1CCN(CC(=O)O)CCN([C@H](CCC(=O)*)C(=O)O)CC1; PEG6 = NCCOCCOCCOCCOCCOCCOCCC(=O)O

A short description of data set [1]: stability towards degradation by human serum peptidases. It is filed as in vitro ADME. The settings on record: pooled human serum, 37 °C, incubation up to 90 min, intact tracer by radio-HPLC; read-out: Calculated Half-Life in Human Serum. On the procedure:
For the applicability of radiopeptides, their stability towards degradation by human serum peptidases is of importance as a low stability towards metabolization interferes with successful target visualization. Thus, the stability of the radiopeptides [^68Ga]Ga-1–[^68Ga]Ga-11 against degradation was determined by incubation with commercially available pooled human serum of healthy donors at 37 °C for 0, 15, 30, 45, 60, 75 and 90 min. At these time points, the fraction of the intact radiopeptides was again determined by analytical radio-HPLC, and the serum half-life of each radioligand was calculated.
Determination of the stability of [^68Ga]Ga-1–[^68Ga]Ga-11 towards degradation by human serum peptidases. A sample of the respective radiolabeled peptide (125 µL, 10–30 MBq, pH 7.4) was added to commercially available pooled human serum (500 µL) and warmed to 37 °C. At defined time-points (t = 0, […]), 75 µL of the mixture were added to 75 µL ice-cold ethanol, further cooled on ice for 5 min, and centrifuged at 13,000 rpm (12,100× g) for 90 s. The supernatant was collected, the activity of the supernatant and the precipitate measured, where after the supernatant was analyzed by analytical radio-HPLC and the amount of intact tracer was quantified. Experiments were performed thrice for each radioligand.

The nature of data set [2]: logD(7.4) determination by partition between 1-octanol and phosphate buffer pH 7.4. It is filed as physicochemical. The source says: For peptidic radiotracers, hydrophilicity is an important parameter as it can enable the initial assessment of the route by which the radioligand is metabolized and excreted. The commonly determined measure for the hydrophilicity/lipophilicity profile of a radiotracer is the determination of its logD(7.4) value and is investigated by partition experiments between an aqueous phosphate buffer phase at pH 7.4 and 1-octanol. For [^68Ga]Ga-1–[^68Ga]Ga-11, logD(7.4) values of −3.44 ± 0.08 ([^68Ga]Ga-1), −3.51 ± 0.22 ([^68Ga]Ga-2), −3.92 ± 0.09 ([^68Ga]Ga-3), −4.01 ± 0.13 ([^68Ga]Ga-4), −3.91 ± 0.06 ([^68Ga]Ga-5), −3.86 ± 0.11 ([^68Ga]Ga-6), −3.03 ± 0.20 ([^68Ga]Ga-7), −3.16 ± 0.11 ([^68Ga]Ga-8), −2.93 ± 0.08 ([^68Ga]Ga-9), −3.92 ± 0.09 ([^68Ga]Ga-10) and −3.98 ± 0.06 ([^68Ga]Ga-11) were obtained in these partition experiments. This high hydrophilicity of the tracers can be considered beneficial, as it should result in low, non-specific liver accumulation of the agents. This is advantageous with regard to the visualization of malignant liver lesions (especially hepatocellular carcinomas (HCCs) and liver metastases of colon carcinoma), which mostly overexpress the EGFR [46, 47] and, thus, represent an important area of application of an EGFR-specific peptidic radiotracer.
Determination of the logD(7.4) values of [^68Ga]Ga-1–[^68Ga]Ga-11. The aqueous phasepH7.4/1-octanol partition coefficient (logD(7.4)) of the developed radiotracers was determined by addition of a solution of the respective radiolabeled peptide (5 µL, 0.5–2 MBq) to a mixture of 1-octanol (800 µL) and phosphate buffer (0.05 M, pH 7.4, 795 µL). The mixtures were vigorously shaken for 5 min on a mechanical shaker and subsequently centrifuged at 13,000 rpm (12,100× g) for 2 min to achieve complete phase separation. 125 µL of each phase were taken and the amount of radioactivity in each phase was determined by γ-counting. Experiments were performed thrice, each in triplicate.

[3] abbreviates: 1-octanol / phosphate buffer 0.05 M, read-out: logD(7.4).

Regarding `CC(C)C[C@H](NC(=O)[C@H](Cc1c[nH]c2ccccc12)NC(=O)[C@H](Cc1ccccc1)NC(=O)[C@H](CCC(N)=O)NC(=O)[C@H](C)NC(=O)[C@H](CO)NC(=O)[C@H](CC(=O)O)NC(=O)[C@@H]1CCCN1C(=O)[C@H](CCCNC(=N)N)NC(=O)[C@@H](N)CC(N)=O)C(=O)N[C@@H](Cc1c[nH]cn1)C(=O)N[C@@H](Cc1c[nH]cn1)C(=O)NCCOCCOCCOCCOCCOCCOCCC(=O)N[C@@H](CCCCNC(=O)CC[C@H](C(=O)O)N1CCN(CC(=O)O)CCN(CC(=O)O)CC1)C(N)=O` [[^68Ga]Ga-6, metal not drawn] (H-NRPDSAQFWLHH[PEG6]K(X1)-NH2), the half-life in data set [1] is 17.7 ± 0.717 h. In data set [2] (setting [3]), the logD is -3.86 ± 0.11. Take `N=C(N)NCCC[C@H](NC(=O)[C@@H](N)CCC(N)=O)C(=O)N[C@@H](Cc1c[nH]cn1)C(=O)N[C@@H](CCCCN)C(=O)N1CCC[C@H]1C(=O)N[C@@H](CCCNC(=N)N)C(=O)N[C@@H](CCC(=O)O)C(=O)NCCOCCOCCOCCOCCOCCOCCC(=O)N[C@@H](CCCCNC(=O)CC[C@H](C(=O)O)N1CCN(CC(=O)O)CCN(CC(=O)O)CC1)C(N)=O` [[^68Ga]Ga-5, metal not drawn] (H-QRHKPRE[PEG6]K(X1)-NH2): the logD in data set [2] (setting [3]) was -3.91 ± 0.06. With `CSCC[C@H](NC(=O)[C@@H]1CSSC[C@H](NC(=O)[C@@H](N)CCC(=O)O)C(=O)N2CCC[C@H]2C(=O)N[C@@H](CC(C)C)C(=O)N[C@@H](CO)C(=O)N[C@@H](Cc2c[nH]cn2)C(=O)N[C@@H](CC(=O)O)C(=O)NCC(=O)N[C@@H](Cc2ccc(O)cc2)C(=O)N[C@@H](CS)C(=O)N[C@@H](CC(C)C)C(=O)N[C@@H](Cc2c[nH]cn2)C(=O)N[C@@H](CC(=O)O)C(=O)NCC(=O)N[C@@H](C(C)C)C(=O)N1)C(=O)NCCOCCOCCOCCOCCOCCOCCC(=O)N[C@@H](CCCCNC(=O)CC[C@H](C(=O)O)N1CCN(CC(=O)O)CCN(CC(=O)O)CC1)C(N)=O` [[^68Ga]Ga-8, metal not drawn] (H-ECPLSHDGYCLHDGVCM[PEG6]K(X1)-NH2; disulfide 2-16), the pH-dependent lipophilicity (logD) in data set [2] is -3.16 ± 0.11. On to `CC[C@H](C)[C@@H]1NC(=O)[C@H](Cc2ccc(O)cc2)NC(=O)[C@H](CCSC)NC(=O)[C@H](CS)NC(=O)[C@H](C(C)C)NC(=O)CNC(=O)[C@H](CC(=O)O)NC(=O)[C@H](Cc2c[nH]cn2)NC(=O)[C@H](CC(C)C)NC(=O)[C@@H](NC(=O)[C@@H](N)Cc2ccc(O)cc2)CSSC[C@@H](C(=O)N[C@@H](CC(N)=O)C(=O)NCCOCCOCCOCCOCCOCCOCCC(=O)N[C@@H](CCCCNC(=O)CC[C@H](C(=O)O)N2CCN(CC(=O)O)CCN(CC(=O)O)CC2)C(N)=O)NC(=O)[C@H](C)NC(=O)[C@H](Cc2ccc(O)cc2)NC(=O)[C@H](CCCCN)NC(=O)[C@H](CC(=O)O)NC(=O)[C@H](CC(C)C)NC(=O)[C@H](C)NC(=O)[C@H](CCC(=O)O)NC1=O` [[^68Ga]Ga-9, metal not drawn] (H-YCLHDGVCMYIEALDKYACN[PEG6]K(X1)-NH2; disulfide 2-19; N-terminus assumed), for which the logD in data set [2] was -2.93 ± 0.08. As to `CC[C@H](C)[C@@H]1NC(=O)[C@H](Cc2ccc(O)cc2)NC(=O)CNC(=O)[C@H](C(C)C)NC(=O)[C@H](C(C)C)NC(=O)[C@@H](NC(=O)[C@@H](N)CC(N)=O)CSSC[C@@H](C(=O)N[C@@H](CCC(N)=O)C(=O)NCCOCCOCCOCCOCCOCCOCCC(=O)N[C@@H](CCCCNC(=O)CC[C@H](C(=O)O)N2CCN(CC(=O)O)CCN(CC(=O)O)CC2)C(N)=O)NC(=O)[C@H](CCCNC(=N)N)NC(=O)[C@H](CCC(=O)O)NC(=O)CNC1=O` [[^68Ga]Ga-10, metal not drawn] (H-NCVVGYIGERCQ[PEG6]K(X1)-NH2; disulfide 2-11), in data set [1], the half-life is 11.7 ± 0.703 h. The logD in data set [2] (setting [3]) is -3.92 ± 0.09. For `C[C@@H](O)[C@H](NC(=O)[C@H](CCC(N)=O)NC(=O)[C@H](CC(=O)O)NC(=O)[C@H](CO)NC(=O)[C@@H](NC(=O)[C@H](Cc1c[nH]cn1)NC(=O)CCOCCOCCOCCOCCOCCOCCNC(=O)CC[C@H](C(=O)O)N1CCN(CC(=O)O)CCN(CC(=O)O)CC1)[C@@H](C)O)C(=O)N[C@@H](CC(N)=O)C(=O)O` [[^68Ga]Ga-4, metal not drawn] ({X1-PEG6}-HTSDQTN-OH), the half-life in data set [1] is 40.5 ± 0.645 h. Moreover, the logD in data set [2] (setting [3]) is -4.01 ± 0.13. In turn, `CC(C)C[C@H](NC(=O)CCOCCOCCOCCOCCOCCOCCNC(=O)CC[C@H](C(=O)O)N1CCN(CC(=O)O)CCN(CC(=O)O)CC1)C(=O)N[C@@H](C)C(=O)N[C@@H](CCCNC(=N)N)C(=O)N[C@@H](CC(C)C)C(=O)N[C@@H](CC(C)C)C(=O)N[C@H](C(=O)O)[C@@H](C)O` [[^68Ga]Ga-2, metal not drawn] returned a pH-dependent lipophilicity (logD) in data set [2] of -3.51 ± 0.22. Regarding `C[C@H](NC(=O)[C@H](CCC(=O)O)NC(=O)[C@H](Cc1ccc(O)cc1)NC(=O)[C@H](CC(=O)O)NC(=O)[C@H](Cc1ccc(O)cc1)NC(=O)[C@H](Cc1ccccc1)NC(=O)CNC(=O)[C@@H]1CCCN1C(=O)CNC(=O)[C@H](CC(N)=O)NC(=O)[C@H](CCC(=O)O)NC(=O)CNC(=O)[C@H](CO)NC(=O)[C@@H](N)Cc1c[nH]c2ccccc12)C(=O)NCCOCCOCCOCCOCCOCCOCCC(=O)N[C@@H](CCCCNC(=O)CC[C@H](C(=O)O)N1CCN(CC(=O)O)CCN(CC(=O)O)CC1)C(N)=O` [[^68Ga]Ga-11, metal not drawn] (H-WSGENGPGFYDYEA[PEG6]K(X1)-NH2), the half-life in data set [1] is 9.37 ± 0.115 h. Moreover, in data set [2] (setting [3]), the logD was -3.98 ± 0.06. Turning to `CC[C@H](C)[C@H](NC(=O)[C@@H](NC(=O)[C@H](CC(N)=O)NC(=O)[C@H](CCC(N)=O)NC(=O)[C@@H]1CCCN1C(=O)[C@@H](NC(=O)[C@H](Cc1ccc(O)cc1)NC(=O)CNC(=O)[C@H](Cc1ccc(O)cc1)NC(=O)[C@H](Cc1c[nH]c2ccccc12)NC(=O)[C@H](Cc1c[nH]cn1)NC(=O)[C@H](Cc1ccc(O)cc1)NC(=O)CCOCCOCCOCCOCCOCCOCCNC(=O)CC[C@H](C(=O)O)N1CCN(CC(=O)O)CCN(CC(=O)O)CC1)[C@@H](C)O)C(C)C)C(=O)O` [[^68Ga]Ga-1, metal not drawn], in data set [1], the half-life was 4.928 ± 0.045 h. Also, the log distribution coefficient (logD) in data set [2] (setting [3]) is -3.44 ± 0.08. For `CSCC[C@H](NC(=O)[C@@H]1CCCN1C(=O)[C@@H](N)Cc1ccccc1)C(=O)N[C@@H](Cc1ccccc1)C(=O)N[C@@H](CC(N)=O)C(=O)N[C@@H](Cc1c[nH]cn1)C(=O)N[C@@H](Cc1c[nH]c2ccccc12)C(=O)N[C@@H](CCC(=O)O)C(=O)N[C@@H](CCC(N)=O)C(=O)N[C@@H](Cc1c[nH]c2ccccc12)C(=O)N1CCC[C@H]1C(=O)N1CCC[C@H]1C(=O)NCCOCCOCCOCCOCCOCCOCCC(=O)N[C@@H](CCCCNC(=O)CC[C@H](C(=O)O)N1CCN(CC(=O)O)CCN(CC(=O)O)CC1)C(N)=O` [[^68Ga]Ga-7, metal not drawn] (H-FPMFNHWEQWPP[PEG6]K(X1)-NH2), the half-life in data set [1] was 1.11 ± 0.05 h. In data set [2] (setting [3]), the logD was -3.03 ± 0.2. Take `CC[C@H](C)[C@H](NC(=O)[C@@H]1CCCN1C(=O)[C@H](Cc1ccc(O)cc1)NC(=O)[C@H](CO)NC(=O)CCOCCOCCOCCOCCOCCOCCNC(=O)CC[C@H](C(=O)O)N1CCN(CC(=O)O)CCN(CC(=O)O)CC1)C(=O)N1CCC[C@H]1C(=O)N[C@@H](CC(=O)O)C(=O)N[C@H](C(=O)O)[C@@H](C)O` [[^68Ga]Ga-3, metal not drawn] ({X1-PEG6}-SYPIPDT-OH; C-terminus assumed): the half-life in data set [1] is 135 ± 5.12 h. Moreover, in data set [2] (setting [3]), the logD is -3.92 ± 0.09.
